Patent US20240182531A1, “KV1.3 Blockers” (priority 2021, published 2024)
Where a SMILES comes first, the peptide text is derived from it. Bridges are numbered along the chain shown (N, C = ends). [ ]: non-standard residue; d: D form. Nle = CCCC[C@H](N)C(=O)O; Orn = NCCC[C@H](N)C(=O)O; Dab = NCC[C@H](N)C(=O)O; Dap = NC[C@H](N)C(=O)O

The compounds below were run against T1, human Kv1.3 voltage-gated K+ channel (Homo sapiens, UniProt P22001) (assay: Kv1.3 blocker activity in FLIPR thallium assay).
T1 construct: host or cells: CHO-DUKX
Assay type: cell-based
Experimental: A human Kv1.3 voltage-gated K+ channel cell line was purchased from Perkin Elmer (#TDS-AX-010-C-1). The cell line is based on CHO-DUKX cells stably transfected with the human Kv1.3 voltage-gated K+ channel.
The cell line was grown in MEMα with nucleotides, GlutaMAX (Gibco #32571028), 10% Foetal Bovine Serum (FBS), 0.4 mg/ml Geneticin, 100 units/ml Penicillin, and 100 μg/ml Streptomycin and seeded at 10.000 cells/well in black poly-D-lysine-coated 96 well plates.
The FluxOR™ Potassium Ion Channel Assay (Invitrogen #F10016) was used to quantitate flux of thallium ions into the cells as a response to Kv1.3 activation with a stimulus buffer causes depolarization of the cell membrane, thereby generating a fluorescent signal, proportional to channel activity. The assay was performed as described by the assay kit manufacturer including a compound pre-incubation step (30 min, 37° C., 5% CO2) in assay buffer containing 0.02% W/v casein from bovine milk (Sigma #C4765) prior to cell membrane depolarization using a final stimuli buffer composition corresponding to 0.2× FluxOR™ chloride-free buffer, 5 mM K2SO4, 1 mM Tl2SO4. The fluorescence responses were recorded and quantified (maximum response at 50 s, 37° C.) using the FLIPR® Tetra High Throughput Screening System (Molecular Devices, Inc.).
IC50 can be regarded as a measure of potency of inhibition for the respective compound. The IC50 value is a measure of the concentration of an inhibitor required to achieve half of that compound's maximal inhibition of ion channel activity in a given assay.

T1 sequence (P22001 whole entry): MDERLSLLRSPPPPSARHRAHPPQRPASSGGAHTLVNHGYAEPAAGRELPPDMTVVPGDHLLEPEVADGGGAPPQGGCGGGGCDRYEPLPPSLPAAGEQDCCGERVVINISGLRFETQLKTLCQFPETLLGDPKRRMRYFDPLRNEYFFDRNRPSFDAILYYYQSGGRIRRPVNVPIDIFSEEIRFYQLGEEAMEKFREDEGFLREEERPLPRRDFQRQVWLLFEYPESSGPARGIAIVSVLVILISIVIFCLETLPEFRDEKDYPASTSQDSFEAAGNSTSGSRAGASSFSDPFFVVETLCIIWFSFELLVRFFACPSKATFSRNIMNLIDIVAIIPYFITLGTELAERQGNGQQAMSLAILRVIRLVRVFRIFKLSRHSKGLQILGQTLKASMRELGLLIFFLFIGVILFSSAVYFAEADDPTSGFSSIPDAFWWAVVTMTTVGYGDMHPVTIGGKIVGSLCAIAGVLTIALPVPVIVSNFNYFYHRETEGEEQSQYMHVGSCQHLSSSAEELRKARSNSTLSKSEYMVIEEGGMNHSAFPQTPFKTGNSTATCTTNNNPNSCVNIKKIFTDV

Point of comparison: `CCCC[C@H](NC(=O)[C@@H]1CCCN1)C(=O)N[C@@H](CCC(=O)O)C(=O)N[C@@H](CCCC)C(=O)N[C@@H](CCCNC(=N)N)C(=O)N[C@H]1CSSC[C@@H]2NC(=O)[C@H](CCCCN)NC(=O)CNC(=O)[C@H](Cc3ccccc3)NC(=O)[C@H]([C@@H](C)CC)NC(=O)[C@H](CO)NC(=O)CNC(=O)[C@H]([C@@H](C)CC)NC(=O)[C@H](C)NC(=O)[C@H](C)NC(=O)[C@H](CC(C)C)NC(=O)[C@@H]3CSSC[C@@H](C(=O)N[C@@H](Cc4ccc(O)cc4)C(=O)N4CCC[C@H]4C(=O)N[C@@H](CCCNC(=N)N)C(=O)O)NC(=O)[C@H](CCCCN)NC(=O)[C@H](CSSC[C@H](NC(=O)[C@H](CCC(=O)O)NC(=O)[C@H](C(C)C)NC(=O)[C@H](CCCN)NC(=O)[C@H](C)NC(=O)[C@H](CO)NC1=O)C(=O)N[C@@H](CCCCN)C(=O)N[C@@H](CCC(N)=O)C(=O)N[C@@H](CCCCN)C(=O)N3)NC(=O)[C@H](CCCCN)NC(=O)[C@H](CCCCN)NC(=O)[C@H](CC(N)=O)NC(=O)[C@H](CCCC)NC2=O` [compound 6] (H-P[Nle]E[Nle]RCSA[Orn]VECKQKCLAAIGSIFGKC[Nle]NKKCKCYPR-OH; disulfide 6-27, 12-32, 16-34), IC50 33 nM. Against it:
- CCCC[C@H](NC(=O)[C@@H]1CCCN1)C(=O)N[C@@H](CCC(=O)O)C(=O)N[C@@H](CCCC)C(=O)N[C@@H](CCCNC(=N)N)C(=O)N[C@H]1CSSC[C@@H]2NC(=O)[C@H](CCCCN)NC(=O)CNC(=O)[C@H](Cc3ccccc3)NC(=O)[C@H]([C@@H](C)CC)NC(=O)[C@H](CO)NC(=O)CNC(=O)[C@H]([C@@H](C)CC)NC(=O)[C@H](C)NC(=O)[C@H](C)NC(=O)[C@H](CC(C)C)NC(=O)[C@@H]3CSSC[C@@H](C(=O)N[C@@H](Cc4ccc(O)cc4)C(=O)N4CCC[C@H]4C(=O)N[C@@H](CCCNC(=N)N)C(=O)O)NC(=O)[C@H](CCCCN)NC(=O)[C@H](CSSC[C@H](NC(=O)[C@H](CCC(=O)O)NC(=O)[C@H](C(C)C)NC(=O)[C@H](CO)NC(=O)[C@H](C)NC(=O)[C@H](CCCN)NC1=O)C(=O)N[C@@H](CCCCN)C(=O)N[C@@H](CCC(N)=O)C(=O)N[C@@H](CCCCN)C(=O)N3)NC(=O)[C@H](CCCCN)NC(=O)[C@H](CCCCN)NC(=O)[C@H](CC(N)=O)NC(=O)[C@H](CCCC)NC2=O [compound 2] (H-P[Nle]E[Nle]RC[Orn]ASVECKQKCLAAIGSIFGKC[Nle]NKKCKCYPR-OH; disulfide 6-27, 12-32, 16-34) — 280-fold lower, 0.12 nM
- CCCC[C@H](NC(=O)[C@@H]1CCCN1)C(=O)N[C@@H](CCC(=O)O)C(=O)N[C@@H](CCCC)C(=O)N[C@@H](CCCNC(=N)N)C(=O)N[C@H]1CSSC[C@@H]2NC(=O)[C@H](CCCCN)NC(=O)CNC(=O)[C@H](Cc3ccccc3)NC(=O)[C@H]([C@@H](C)CC)NC(=O)[C@H](CO)NC(=O)CNC(=O)[C@H]([C@@H](C)CC)NC(=O)[C@H](C)NC(=O)[C@H](C)NC(=O)[C@H](CC(C)C)NC(=O)[C@@H]3CSSC[C@@H](C(=O)N[C@@H](Cc4ccc(O)cc4)C(=O)N4CCC[C@H]4C(=O)N[C@@H](CCCNC(=N)N)C(=O)O)NC(=O)[C@H](CCCCN)NC(=O)[C@H](CSSC[C@H](NC(=O)[C@H](CCC(=O)O)NC(=O)[C@H](C(C)C)NC(=O)[C@H](CO)NC(=O)[C@H](C)NC(=O)[C@H](Cc4ccc(O)cc4)NC1=O)C(=O)N[C@@H](CCCCN)C(=O)N[C@@H](CCC(N)=O)C(=O)N[C@@H](CCCCN)C(=O)N3)NC(=O)[C@H](CCCCN)NC(=O)[C@H](CCCCN)NC(=O)[C@H](CC(N)=O)NC(=O)[C@H](CCCC)NC2=O [compound 5] (H-P[Nle]E[Nle]RCYASVECKQKCLAAIGSIFGKC[Nle]NKKCKCYPR-OH; disulfide 6-27, 12-32, 16-34) — 180-fold lower, 0.18 nM
- CCCC[C@H](NC(=O)[C@@H]1CCCN1)C(=O)N[C@@H](CCC(=O)O)C(=O)N[C@@H](CCCC)C(=O)N[C@@H](CCCNC(=N)N)C(=O)N[C@H]1CSSC[C@@H]2NC(=O)[C@H](CCCCN)NC(=O)CNC(=O)[C@H](Cc3ccccc3)NC(=O)[C@H]([C@@H](C)CC)NC(=O)[C@H](CO)NC(=O)CNC(=O)[C@H]([C@@H](C)CC)NC(=O)[C@H](C)NC(=O)[C@H](C)NC(=O)[C@H](CC(C)C)NC(=O)[C@@H]3CSSC[C@@H](C(=O)N[C@@H](Cc4ccc(O)cc4)C(=O)N4CCC[C@H]4C(=O)N[C@@H](CCCNC(=N)N)C(=O)O)NC(=O)[C@H](CCCCN)NC(=O)[C@H](CSSC[C@H](NC(=O)[C@H](CCC(=O)O)NC(=O)[C@H](C(C)C)NC(=O)[C@H](CO)NC(=O)[C@H](C)NC(=O)[C@H](CN)NC1=O)C(=O)N[C@@H](CCCCN)C(=O)N[C@@H](CCC(N)=O)C(=O)N[C@@H](CCCCN)C(=O)N3)NC(=O)[C@H](CCCCN)NC(=O)[C@H](CCCCN)NC(=O)[C@H](CC(N)=O)NC(=O)[C@H](CCCC)NC2=O [compound 7] (H-P[Nle]E[Nle]RC[Dap]ASVECKQKCLAAIGSIFGKC[Nle]NKKCKCYPR-OH; disulfide 6-27, 12-32, 16-34) — 120-fold lower, 0.28 nM
- CCCC[C@H](NC(=O)[C@@H]1CCCN1)C(=O)N[C@@H](CCC(=O)O)C(=O)N[C@@H](CCCC)C(=O)N[C@@H](CCCNC(=N)N)C(=O)N[C@H]1CSSC[C@@H]2NC(=O)[C@H](CCCCN)NC(=O)CNC(=O)[C@H](Cc3ccccc3)NC(=O)[C@H]([C@@H](C)CC)NC(=O)[C@H](CO)NC(=O)CNC(=O)[C@H]([C@@H](C)CC)NC(=O)[C@H](C)NC(=O)[C@H](C)NC(=O)[C@H](CC(C)C)NC(=O)[C@@H]3CSSC[C@@H](C(=O)N[C@@H](Cc4ccc(O)cc4)C(=O)N4CCC[C@H]4C(=O)N[C@@H](CCCNC(=N)N)C(=O)O)NC(=O)[C@H](CCCCN)NC(=O)[C@H](CSSC[C@H](NC(=O)[C@H](CCC(=O)O)NC(=O)[C@H](C(C)C)NC(=O)[C@H](CN)NC(=O)[C@H](C)NC(=O)[C@H](CO)NC1=O)C(=O)N[C@@H](CCCCN)C(=O)N[C@@H](CCC(N)=O)C(=O)N[C@@H](CCCCN)C(=O)N3)NC(=O)[C@H](CCCCN)NC(=O)[C@H](CCCCN)NC(=O)[C@H](CC(N)=O)NC(=O)[C@H](CCCC)NC2=O [compound 8] (H-P[Nle]E[Nle]RCSA[Dap]VECKQKCLAAIGSIFGKC[Nle]NKKCKCYPR-OH; disulfide 6-27, 12-32, 16-34) — 130-fold lower, 0.26 nM
- CCCC[C@H](NC(=O)[C@@H]1CCCN1)C(=O)N[C@@H](CCC(=O)O)C(=O)N[C@@H](CCCC)C(=O)N[C@@H](CCCNC(=N)N)C(=O)N[C@H]1CSSC[C@@H]2NC(=O)[C@H](CCCCN)NC(=O)CNC(=O)[C@H](Cc3ccccc3)NC(=O)[C@H]([C@@H](C)CC)NC(=O)[C@H](CO)NC(=O)CNC(=O)[C@H]([C@@H](C)CC)NC(=O)[C@H](C)NC(=O)[C@H](C)NC(=O)[C@H](CC(C)C)NC(=O)[C@@H]3CSSC[C@@H](C(=O)N[C@@H](Cc4ccc(O)cc4)C(=O)N4CCC[C@H]4C(=O)N[C@@H](CCCNC(=N)N)C(=O)O)NC(=O)[C@H](CCCCN)NC(=O)[C@H](CSSC[C@H](NC(=O)[C@H](CCC(=O)O)NC(=O)[C@H](C(C)C)NC(=O)[C@H](CO)NC(=O)[C@H](C)NC(=O)[C@H](CCN)NC1=O)C(=O)N[C@@H](C)C(=O)N[C@@H](CCC(N)=O)C(=O)N[C@@H](CO)C(=O)N3)NC(=O)[C@H](CCCCN)NC(=O)CNC(=O)[C@H](CC(N)=O)NC(=O)[C@H](CCCC)NC2=O [compound 9] (H-P[Nle]E[Nle]RC[Dab]ASVECAQSCLAAIGSIFGKC[Nle]NGKCKCYPR-OH; disulfide 6-27, 12-32, 16-34) — 7.2-fold lower, 4.6 nM
- CCCC[C@H](NC(=O)[C@@H]1CCCN1)C(=O)N[C@@H](CCC(=O)O)C(=O)N[C@@H](CCCC)C(=O)N[C@@H](CCCNC(=N)N)C(=O)N[C@H]1CSSC[C@@H]2NC(=O)[C@H](CCCCN)NC(=O)CNC(=O)[C@H](Cc3ccccc3)NC(=O)[C@H]([C@@H](C)CC)NC(=O)[C@H](CO)NC(=O)CNC(=O)[C@H]([C@@H](C)CC)NC(=O)[C@H](C)NC(=O)[C@H](C)NC(=O)[C@H](CC(C)C)NC(=O)[C@@H]3CSSC[C@@H](C(=O)N[C@@H](Cc4ccc(O)cc4)C(=O)N4CCC[C@H]4C(=O)N[C@@H](CCCNC(=N)N)C(N)=O)NC(=O)[C@H](CCCCN)NC(=O)[C@H](CSSC[C@H](NC(=O)[C@H](CCC(=O)O)NC(=O)[C@H](C(C)C)NC(=O)[C@H](CO)NC(=O)[C@H](C)NC(=O)[C@H](CCN)NC1=O)C(=O)N[C@@H](C)C(=O)N[C@@H](CCC(N)=O)C(=O)N[C@@H](CO)C(=O)N3)NC(=O)[C@H](CCCCN)NC(=O)CNC(=O)[C@H](CC(N)=O)NC(=O)[C@H](CCCC)NC2=O [compound 10] (H-P[Nle]E[Nle]RC[Dab]ASVECAQSCLAAIGSIFGKC[Nle]NGKCKCYPR-NH2; disulfide 6-27, 12-32, 16-34) — 100-fold lower, 0.33 nM
